Here are results for 2 compounds from publication PMC9000012, “Amorphous Inclusion Complexes: Molecular Interactions of Hesperidin and Hesperetin with HP-Β-CD and Their Biological Effects” (International Journal of Molecular Sciences, 2022).

Values after ≈ are worked out from the molar mass of the structure shown. “Also recorded” adds a separate entry of the source. Where two headings read alike, the source gives them in different places.

One data set is described as follows: physchem. Conditions: for improvement in solubility: by amorphous inclusion complexes with HP-β-CD; for solubility at 24 h: thermodynamic from solid. The class given is physicochemical. As to the method:
Concentrations of Hed and Het during solubility, dissolution rate, and permeability studies were measured by high-performance liquid chromatography with the DAD detector (HPLC-DAD). In this study, a Shimadzu Nexera (Shimadzu Corp., Kyoto, Japan) equipped with SCL-40 system controller; DGU-403 degassing unit; LC-40B XR solvent delivery module; SIL-40C XR auto sampler; CTO-40C column oven; SPD-M40 photo diode array detector, was used. For the stationary phase, a Dr. Maisch ReproSil-Pur Basic-C18 100 Å column, 5 µm particle size, 250 × 4.60 mm (Dr. Maisch, Ammerbuch-Entringen, Germany), was used. The mobile phase was methanol/0.1% acetic acid (65:35 v/v). The mobile phase was vacuum-filtered through a 0.45 µm nylon filter (Phenomenex, CA, USA). The experimental conditions were as follows: 0.9 mL·min^−1 flow rate, wavelength 280 nm for Hed and 288 nm for Het, and the column temperature at 30 °C. The injection volume differed depending on the assay. […] The method duration time was 10 min.
A total of 0.1 M HCl was obtained from the analytical weighed amount in accordance with the BASF SE recommendations. Phosphate buffer at pH 6.8 was prepared according to the following description: in a 1000 mL volumetric flask, we placed 250 mL of 0.2 N potassium dihydrogen phosphate solution, then added 112 mL of 0.2 N sodium hydroxide solution and filled the mixture up to 1000 mL with distilled water. High-quality pure water was prepared using a Direct-Q 3 UV purification system (Millipore, Molsheim, France, model Exil SA 67120).
An excess number of obtained systems and physical mixtures was placed in a 10 mL glass tube; then, 5.0 mL of medium (water, HCl 0.1 N or phosphate buffer (pH 6.8)) was added. All samples were mixed using a vortex mixer for 30 s and left at room temperature for 24 h. The obtained solutions were filtered through a 0.2 μm nylon membrane filter (Sigma-Aldrich, St. Louis, MO, USA) and analyzed for Hed and Het content using the developed and validated the HPLC method. The analysis was performed in triplicate.

Data set [1] is described as follows: PAMPA GIT permeability assay. The class given is in vitro ADME. As to the method: (§1) In vitro gastrointestinal (GIT) and blood–brain barrier (BBB) permeability was studied using the PAMPA (Parallel Artificial Membrane Permeability Assay) model. The sandwich consists of two 96-well microfilter plates. The PAMPA system contains two chambers: the donor at the bottom and the acceptor chamber at the top. The chambers are separated by a 120 μm thick microfilter disc coated with a 20% (w/v) dodecane solution of a lecithin mixture (Pion, Inc.). The analyzed samples were prepared by dissolving an excess amount of pure compound and systems in water. In addition, the pure compound was dissolved in DMSO. The donor solution was adjusted to pH ≈ 6.8 for GIT application and to pH ≈ 7.4 for BBB application using 0.5 M NaOH. The plates were combined and then incubated for 4 h for both models in a humidity-saturated atmosphere with the temperature set at 37 °C. The apparent permeability coefficient (Papp) was calculated according to the following equation: Papp=−ln(1−CA/Cequilibrium)/S×(1/VD+1/VA)×t where VD is donor volume; VA is acceptor volume; Cequilibrium is equilibrium concentration, Cequilibrium=CD×VD+CA×VA/VD+VA; S is membrane area; and t is incubation time (in seconds).

Data set [2] in a line: PAMPA BBB permeability assay. The class given is in vitro ADME. Conditions: for Papp at 4 h: PAMPA. On the procedure:
as §1

Another data set concerns the target T1, AChE (Homo sapiens, UniProt P22303).
T1 construct: purchased Sigma Aldrich, Germany
The data set can be described thus: Acetylcholinesterase (AChE) inhibition assay. The class given is biochemical. As to the method:
(§2) To assess the activity of Hed, Het, and systems, the spectrometric method according to the outlined procedure was applied. A Multiskan GO 1510 (Thermo Fisher Scientific, Vantaa, Finland) plate reader was used for measurements of 96-well plates of the maximum volume of 300 μL. The hydrolysis of acetylthiocholine/butyrylthiocholine caused a color change. The absorbance of the enzymes was measured at a wavelength of 412 nm, 10 min after pipetting on a microplate. The reaction mixture containing 0.1 mL of 0.3 mM 5,5-dithio-bis-(2-nitrobenzoic acid) (DTNB, Sigma Aldrich, Germany), 10 mM NaCl and 2 mM MgCl2·6H2O solution, 0.575 mL 50 mM Tris-HCl buffer (pH = 8.0), 25 µL of 0.28 units/mL AChE/BChE (Sigma Aldrich, Germany), and 0.2 mL of the tested system was measured at a wavelength of 405 nm and at a temperature of 22 °C. The measurement was conducted after 20 min (BChE) or 60 min (AChE) after adding all ingredients into a microplate. The blank sample contained Tris-HCl buffer instead of the tested compounds. All samples were analyzed in six independent replicates. The inhibitory activity of each enzyme was calculated with the use of following equation: Inhibition ability (%)=100−Ap−Abp×100/Ak−Ab where Ak is absorbance of control, Ab is the blank of the control, Ap is the absorbance of the sample, and Abp is the blank of the sample.

For the next data set, the target named is T2, BChE (Homo sapiens, UniProt P06276).
T2 construct: purchased Sigma Aldrich, Germany
The experiment in a line: Butyrylcholinesterase (BChE) inhibition assay. Type of data set: biochemical. On the procedure:
as §2

Details of data set [3]: method as in doi:10.1016/j.lwt.2019.03.059. The conditions noted are these: cited from earlier work.

T2 sequence (P06276 29-602, species assumed): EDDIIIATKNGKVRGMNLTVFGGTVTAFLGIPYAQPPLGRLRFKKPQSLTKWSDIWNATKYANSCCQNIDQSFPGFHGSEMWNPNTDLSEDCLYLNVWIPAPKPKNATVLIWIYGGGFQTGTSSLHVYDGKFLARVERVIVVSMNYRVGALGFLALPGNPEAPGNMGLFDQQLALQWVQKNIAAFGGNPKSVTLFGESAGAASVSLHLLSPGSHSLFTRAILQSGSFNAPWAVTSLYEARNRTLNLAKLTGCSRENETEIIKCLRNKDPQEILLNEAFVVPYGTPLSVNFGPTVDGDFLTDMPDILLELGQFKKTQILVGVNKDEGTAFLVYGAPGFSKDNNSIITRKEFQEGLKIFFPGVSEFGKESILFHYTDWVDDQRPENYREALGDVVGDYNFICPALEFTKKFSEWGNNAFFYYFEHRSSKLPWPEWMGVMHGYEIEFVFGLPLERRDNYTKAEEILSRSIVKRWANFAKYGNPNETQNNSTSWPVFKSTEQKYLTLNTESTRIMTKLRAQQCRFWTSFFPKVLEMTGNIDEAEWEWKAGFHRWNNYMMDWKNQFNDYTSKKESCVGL
T1 sequence (P22303 32-614): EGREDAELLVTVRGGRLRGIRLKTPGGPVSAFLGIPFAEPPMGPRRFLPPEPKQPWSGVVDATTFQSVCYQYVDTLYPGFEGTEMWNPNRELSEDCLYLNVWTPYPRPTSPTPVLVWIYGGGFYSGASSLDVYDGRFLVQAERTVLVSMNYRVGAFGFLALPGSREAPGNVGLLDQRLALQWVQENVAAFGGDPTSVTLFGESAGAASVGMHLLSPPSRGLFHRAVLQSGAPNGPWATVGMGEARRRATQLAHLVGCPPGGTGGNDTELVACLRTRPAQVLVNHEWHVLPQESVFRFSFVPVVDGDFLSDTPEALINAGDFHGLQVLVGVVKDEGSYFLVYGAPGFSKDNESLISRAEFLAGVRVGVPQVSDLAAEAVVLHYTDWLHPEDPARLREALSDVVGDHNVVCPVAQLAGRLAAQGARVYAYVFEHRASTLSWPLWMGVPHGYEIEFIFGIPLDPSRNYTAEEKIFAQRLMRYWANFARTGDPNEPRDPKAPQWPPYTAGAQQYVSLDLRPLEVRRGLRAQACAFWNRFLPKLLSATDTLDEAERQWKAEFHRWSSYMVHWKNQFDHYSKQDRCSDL

Turning to `COc1ccc([C@@H]2CC(=O)c3c(O)cc(O[C@@H]4O[C@H](CO[C@@H]5O[C@@H](C)[C@H](O)[C@@H](O)[C@H]5O)[C@@H](O)[C@H](O)[C@H]4O)cc3O2)cc1O` [Hed, hesperidin], in the data set “physchem”, the improvement in solubility entry was “over 1000 times”. For the same compound, the solubility at 24 h was 9 ± 2 µg/mL (≈ 14.7 µM) in “physchem” (pH 6.8, aqueous buffer); 8 ± 3 µg/mL (≈ 13.1 µM) in “physchem” (simulated gastric fluid); 9 ± 1 µg/mL (≈ 14.7 µM) in the data set “physchem” (water). In data set [1] (PAMPA), the “GIT PAMPA permeability, result in words” value is “poorly absorbed”. The Papp at 4 h in data set [1] (PAMPA, pH 6.8) is 0.0554 ×10⁻⁶ cm/s; in data set [2] (pH 7.4), 0.558 ×10⁻⁶ cm/s. The compound also yielded an AChE inhibition at AChE of 9.24 ± 0.81%. For the same compound, the BChE inhibition at BChE is reported as 13.86 ± 1.62%.

For the compound `COc1ccc([C@@H]2CC(=O)c3c(O)cc(O)cc3O2)cc1O` [Het, hesperetin], in the data set “physchem”, the improvement in solubility was over 2000 times. For the same compound, the solubility at 24 h in “physchem” (pH 6.8, aqueous buffer) was 15 ± 0.2 µg/mL (≈ 49.6 µM); in “physchem” (simulated gastric fluid) it was 6 ± 0.1 µg/mL (≈ 19.8 µM); in “physchem” (water), 8 ± 0.1 µg/mL (≈ 26.5 µM). In addition, the Papp at 4 h in data set [1] (PAMPA, compound dissolved in DMSO, donor pH ≈ 6.8, 4 h, 37 °C, read-out: PAMPA GIT Papp) is 9.61 ×10⁻⁶ cm/s; in data set [2] (compound dissolved in DMSO, donor pH ≈ 7.4, 4 h, 37 °C, read-out: PAMPA BBB Papp), 5.58 ×10⁻⁶ cm/s. Also, the “GIT PAMPA permeability, result in words” value in data set [1] (passive diffusion) is “readily absorbed; also recorded: well absorbed”. Moreover, the “BBB PAMPA permeability, result in words” value in data set [2] (passive diffusion) is “easily able to pass this biological barrier; also recorded: crosses the blood–brain barrier”. Besides, the BChE inhibition at BChE worked out at 12.96 ± 3.15%. In addition, the improved solubility is given as 467 fold in data set [3] (Het complex with HP-β-CD) and 30 fold in data set [3] (Het complex with β-CD).
